No end group written: not given here.
How the values were obtained:
MED1 = target: T1, MED1 (Homo sapiens, UniProt Q15648); assay: In vitro droplet assay, small molecule partitioning into MED1 condensates; format: binding; conditions: confocal fluorescence; Example 2: 125 mM NaCl, 10% PEG, 10 μM protein; fluorescent or fluorescently labeled drug
T1 construct: MED1—amino acids 600-1581; 6xHis (N); made in house; host or cells: LOBSTR cells (E. coli)
Protocol: (§1) Recombinant BFP, GFP, or mCherry fusion proteins were concentrated and desalted to an appropriate protein concentration and 125 mM NaCl using Amicon Ultra centrifugal filters (30K MWCO, Millipore). Recombinant protein was added too. […] The protein solution was immediately loaded onto glass bottom 384 well plate (Cellvis P384-1.5H-N) and imaged with an Andor confocal microscope with a 150× objective. Unless indicated, images presented are of droplets settled on the glass coverslip.
Drug and small molecule concentrations used in the droplet experiments are as follows:
To analyze in vitro droplet experiments, custom Python scripts using the scikit-image package were written to identify droplets and characterize their size, shape and intensity. Droplets were segmented from average images of captured channels on various criteria: (1) an intensity threshold that was three s.d. above the mean of the image; (2) size thresholds (20 pixel minimum droplet size); and (3) a minimum circularity (circularity=4π·areaperimeter2) (circularity=4π·areaperimeter2) of 0.8 (1 being a perfect circle). After segmentation, mean intensity for each droplet was calculated while excluding pixels near the phase interface, and background-corrected by subtracting intensity of dark images of droplet formation buffer only. Droplets identified in the channel of the fluorescent protein from ten independent fields of view were quantified for each experiment. The maximum intensity of signal within the droplets was calculated for each channel, the maximum intensity in the drug channel was termed “maximum drug intensity”. To obtain the intensity of drug or dye alone in the diffuse state (termed “diffuse drug intensity”), the compound was added to droplet formation buffer at same concentration used in the droplet assay. This was then imaged on a confocal fluorescent microscope. The resulting image was processed in FIJI to obtain the fluorescent intensity of the field. To obtain the fluorescent intensity of protein droplets that bleed through in the drug channel (termed “background intensity”) protein droplets were imaged in the fluorescent channel in which the drug fluoresces and processed as above to obtain the average maximum intensity within the droplet across 10 images. The enrichment ratio was obtained by the following formula [(maximum drug intensity)−(background intensity)]/(diffuse drug intensity). The box plots show the distributions of all droplets. Each dot represents an individual droplet.

[1] = system: MED1, BRD4, and POL2 condensates in HCT116 colon cancer cell lines; assay: Small molecule effects on transcriptional condensates in GFP-tagged HCT116 cells; format: cell-based, human; conditions: for effect on transcriptional condensates: MED1-GFP, BRD4-GFP, POL2-GFP HCT116; for effect of antimetabolites on MED1, BRD4 or POL2 condensates: 5 uM
From the text: HCT116 colon cancer cell lines endogenously tagged with MED1-GFP, BRD4-GFP, POL2-GFP, or HP1a-GFP (Mock), all forming condensates in the nucleus.

[2] = Droplet formation assay of small molecule alone without any protein; format: physicochemical; conditions: without any protein added
Protocol: as §1, with “Recombinant protein was added too.” left out

ER/MED1 droplets = target: T2, ER/MED1 droplets (Homo sapiens, UniProt P03372); assay: Peptides added to ER/MED1 droplets; format: biochemical; conditions: for effect of peptide on ER partitioning / ER/MED1 droplet formation: in the presence of estrogen
T2 sequence (P03372 1-595): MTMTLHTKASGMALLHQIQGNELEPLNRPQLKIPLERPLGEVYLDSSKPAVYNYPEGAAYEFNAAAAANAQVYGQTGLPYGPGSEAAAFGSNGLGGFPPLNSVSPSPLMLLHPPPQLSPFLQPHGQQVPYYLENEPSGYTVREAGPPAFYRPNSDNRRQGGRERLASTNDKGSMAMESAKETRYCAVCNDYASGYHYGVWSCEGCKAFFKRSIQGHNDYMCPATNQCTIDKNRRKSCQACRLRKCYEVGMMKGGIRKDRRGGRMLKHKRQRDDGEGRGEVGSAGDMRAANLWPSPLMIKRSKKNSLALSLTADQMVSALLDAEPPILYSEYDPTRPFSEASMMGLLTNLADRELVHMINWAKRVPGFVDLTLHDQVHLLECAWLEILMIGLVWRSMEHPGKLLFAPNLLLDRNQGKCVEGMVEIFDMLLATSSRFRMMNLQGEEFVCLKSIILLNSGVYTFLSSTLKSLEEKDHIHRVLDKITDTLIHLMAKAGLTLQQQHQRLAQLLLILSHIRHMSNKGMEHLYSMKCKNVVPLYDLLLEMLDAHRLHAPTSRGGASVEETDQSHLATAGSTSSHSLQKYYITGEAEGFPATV
Protocol: FIG. 24 illustrates ER/MED1 droplets contacted with a fluorescent peptide (left side).
A number of condensate components are known to form in vitro condensates. In general, one or more condensate components are added to solutions (e.g. aqueous solution) at varying concentrations in the presence of a salt (e.g., NaCl) and, optionally, a crowding agent (e.g., polyethylene glycol, Ficoll). See, e.g., Boija et al, Cell, vol. 175, no. 7, pp. 1842-1855 (2018); Sabari et al., Science, vol. 361, pp. 361-371 (2018); Bergeron-Sandoval et al., Cell, vol. 165, no. 5, pp. 1067-1079 (2016). May 19; 165(5):1067-1079, the relevant methods of which are specifically incorporated herein. In some embodiments, in vitro MED1 containing condensates are formed by adding about 10 μM of MED1 to a solution containing […] of NaCl and 10% PEG (e.g., PEG-8000).

MED1 droplets = target: T3, MED1 droplets (Homo sapiens, UniProt Q15648); assay: In vitro droplet drug chase out experiment; format: binding; conditions: 5 μM cisplatin-TR, 10 μM MED1, unlabeled compound 10, 100 or 500 μM
T3 construct: MED1—amino acids 600-1581; 6xHis (N); made in house; host or cells: LOBSTR cells (E. coli)
T3 sequence (Q15648 600-1581): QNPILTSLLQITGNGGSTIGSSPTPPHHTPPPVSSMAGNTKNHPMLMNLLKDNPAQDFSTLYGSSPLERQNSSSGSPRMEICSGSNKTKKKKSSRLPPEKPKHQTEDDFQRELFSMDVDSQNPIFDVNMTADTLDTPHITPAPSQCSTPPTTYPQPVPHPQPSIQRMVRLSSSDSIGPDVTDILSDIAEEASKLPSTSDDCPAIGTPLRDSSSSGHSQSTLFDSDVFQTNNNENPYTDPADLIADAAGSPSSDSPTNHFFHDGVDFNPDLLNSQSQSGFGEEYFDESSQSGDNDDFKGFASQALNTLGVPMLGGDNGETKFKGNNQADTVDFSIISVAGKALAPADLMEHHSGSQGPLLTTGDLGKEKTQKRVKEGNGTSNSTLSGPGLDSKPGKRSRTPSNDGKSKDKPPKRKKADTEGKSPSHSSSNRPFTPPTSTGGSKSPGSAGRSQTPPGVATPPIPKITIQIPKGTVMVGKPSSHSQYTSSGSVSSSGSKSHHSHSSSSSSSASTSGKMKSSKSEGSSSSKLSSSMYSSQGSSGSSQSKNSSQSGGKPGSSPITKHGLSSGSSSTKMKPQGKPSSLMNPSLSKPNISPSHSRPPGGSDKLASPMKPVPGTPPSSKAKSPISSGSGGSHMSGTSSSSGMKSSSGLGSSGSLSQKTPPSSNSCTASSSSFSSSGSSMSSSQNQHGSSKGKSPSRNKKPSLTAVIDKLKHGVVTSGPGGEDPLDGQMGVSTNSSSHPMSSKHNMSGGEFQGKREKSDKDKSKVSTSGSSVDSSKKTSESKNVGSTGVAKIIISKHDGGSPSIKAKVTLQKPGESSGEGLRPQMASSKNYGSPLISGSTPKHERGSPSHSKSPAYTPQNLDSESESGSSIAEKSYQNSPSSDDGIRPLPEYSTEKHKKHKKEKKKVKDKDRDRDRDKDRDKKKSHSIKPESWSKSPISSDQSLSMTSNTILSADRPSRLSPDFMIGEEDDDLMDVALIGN
Protocol: For chase-out experiments 5 μM labeled cisplatin-TR was added to a MED1 droplets reaction (10 μM MED1, 50 mM Tris-HCl pH 7.5, 10% glycerol, 1 mM DTT, 10% PEG) in order to form MED1 droplets concentrated with Cisplatin-TR. Unlabeled transplatin or unlabeled cisplatin (vehicle, 10 μM, 100 μM, or 500 μM) were added to the droplet mixture and the amount of labeled cisplatin-TR remaining in the droplet is measured after chase out. 100 μM fluorescent FLTX1 was added to a MED1 droplets reaction (10 μM MED1, 50 mM Tris-HCl pH 7.5, 10% glycerol, 1 mM DTT, 10% PEG) in order to form MED1 droplets concentrated with FLTX1.

[3] = target: T4, MED1 intrinsically disordered region, amino acids 600-1581, recombinant fluorescent fusion protein (human, UniProt Q15648 600-1581); assay: in vitro droplet assay, peptide added to ER/MED1 droplets
T4 construct: Scaffold protein of the in vitro droplets; also called MED1-IDR; MED1 IDR; not shown: N-terminal 6xHIS plus fluorescent protein (BFP, mEGFP or mCherry)
T4 sequence (Q15648 600-1581 limits assumed): as the sequence (Q15648 600-1581) above

T1 sequence (Q15648 600-1581): as above

CN(C)C/C=C/C(=O)Nc1ccc(C(=O)Nc2cccc(Nc3ncc(Cl)c(-c4c[nH]c5ccccc45)n3)c2)cc1 [THZ1]
partitioning / incorporation into MED1 droplets (MED1): concentrated preferentially in MED1 droplets
effect on transcriptional condensates [1]: global dissolution of condensates
droplet formation of small molecule alone [2]: diffuse fluorescent signal

Nc1ncn([C@@H]2O[C@H](CO)[C@@H](O)[C@H]2O)c(=O)n1 [5-Aza]
effect of antimetabolites on MED1, BRD4 or POL2 condensates [1]: no effect

CNC(=O)Nc1ccc2c(c1)CC[C@@]21OC(=O)N(CC(=O)N(Cc2ccc(F)cc2)[C@@H](C)C(F)(F)F)C1=O [A485]
effect on transcriptional condensates [1]: genomic release and consolidation of condensates

Texas Red
partitioning / incorporation into MED1 droplets (MED1): Neither of the two dyes used to visualized drugs were enriched

O=c1[nH]cc(F)c(=O)[nH]1 [5-FU, fluorouracil]
effect of antimetabolites on MED1, BRD4 or POL2 condensates [1]: no effect

N#CC(=C(/N)Sc1ccccc1N)/C(C#N)=C(/N)Sc1ccccc1N [U0216]
effect on transcriptional condensates [1]: eviction of some condensate components

QNPILTSLLQITG [LXXLL peptide]
incorporation of peptide into MED1 droplets (ER/MED1 droplets; ER/MED1 droplets): incorporated into MED1 droplets
effect of peptide on ER partitioning / ER/MED1 droplet formation (ER/MED1 droplets): decrease in partitioning of ER into the MED1 droplet

CTD: RNA polymerase II CTD repeat YSPTSPS peptide
effect of peptide on ER partitioning / ER/MED1 droplet formation (ER/MED1 droplets): did not have an effect

CC(C)C[C@H](NC(=O)[C@H](Cc1ccccc1)NC(=O)c1cnccn1)B(O)O [Bortezomib]
effect on transcriptional condensates [1]: global dissolution of condensates

COc1cccc2c1C(=O)c1c(O)c3c(c(O)c1C2=O)C[C@@](O)(C(C)=O)C[C@@H]3O[C@H]1C[C@H](N)[C@H](O)[C@H](C)O1 [Daunorubicin]
partitioning / incorporation into MED1 droplets (MED1): immediately incorporate into MED1 droplets
effect on transcriptional condensates [1]: global dissolution of condensates
effect on transcriptional condensates ([1]; listed as daunorubicin): cause condensate dissolution

N.N.[Cl][Pt+2][Cl] [Transplatin, transplatin]
chase out of cisplatin-TR from MED1 droplets by unlabeled compound (MED1 droplets): not able to chase out cisplatin-TR
chase out of cisplatin-TR from MED1 droplets by unlabeled compound (MED1 droplets; listed as isomer of cisplatin): did not exhibit the same behavior

COc1cc(/C=C/C(=O)CC(=O)/C=C/c2ccc(O)c(OC)c2)ccc1O [curcumin]
partitioning / incorporation into MED1 droplets (MED1): immediately incorporate into MED1 droplets
effect on transcriptional condensates [1]: cause condensate dissolution

QNPILTSLLQITG (also: fluorescent label, type and position not given here, also called fluorescent peptide) [LXXLL peptide (QNPILTSLLQITG; SEQ ID NO: 1)]
binding result [3]: binds

— patent US20220390432A1, “METHODS OF CHARACTERIZING AND UTILIZING AGENT-CONDENSATE INTERACTIONS” (Whitehead Institute for Biomedical Research, priority 2019, published 2022)
